This passage reports TGI and GI50 results from PubChem BioAssay (NCI).

Common to all, as to test: inhibition of tumour cell growth, NCI panel, 48 h
Assay [1] relates to MCF7 breast.
The subject of assay [2] is SK-MEL-5 melanoma.
Assay [3] relates to M14 melanoma.
Assay [4] relates to NCI-H460 lung.
In assay [5] the test system is SK-MEL-28 melanoma.
In assay [6] the test system is SR leukemia.
Assay [7] deals with NCI/ADR-RES ovarian.
Assay [8] deals with RPMI-8226 leukemia.
Assay [9] has as its system UACC-257 melanoma.

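The compound was tested at five concentrations on cells cultured in 96-well plates, with a 48-hour exposure period. GI50: concentration for 50% inhibition of growth. TGI denotes the concentration required for complete inhibition of growth.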 A value given as a limit tells only on which side of the number the result lay.

Turning to `COc1ccc(C(=O)c2cc(OC)c(OC)c(OC)c2)cc1`, the TGI in assay [1] was > 100 µM; in assay [2], 26.3 µM; in assay [3], > 100 µM; in assay [4], 17.2 µM; in [5] it was > 95.8 µM; in assay [6], 4.49 µM. Further, the results for the TGI in assay [7], in [8] and in assay [9] were > 100 µM, 76.3 µM and > 100 µM, respectively.
Take `Nc1c(C(=O)c2cccc(CCCN3CCOCC3)c2)cnn1-c1ccc(F)cc1`: the GI50 in assay [1] is > 25 µM; in [2], 24.7 µM; in assay [3], > 25 µM; in [4], > 25 µM; in assay [5] it was > 25 µM; in assay [6], > 25 µM. For the same compound, the GI50 in [7], in assay [8] and in [9] was > 25 µM each time. For the same compound, the TGI in assay [1], in assay [2], in assay [3], in [4], in assay [5] and in [6] was > 25 µM each time. Besides, the TGI in [7], in assay [8] and in [9] was > 25 µM in each case.
In the case of `COc1cc(NS(C)(=O)=O)ccc1Nc1c2ccc([N+](=O)[O-])cc2nc2c(C)cccc12`, the GI50 in assay [1] was 0.0133 µM; in assay [2] it was 0.194 µM; in assay [3], 0.228 µM; in [5], 2.73 µM; in assay [6] it was < 0.012 µM; in [7] it was 6.95 µM. Moreover, the GI50 was 0.18 µM in [8] and 1.29 µM in [9]. Moreover, the TGI in assay [1] stood at 12.2 µM; in assay [2], 1.81 µM; in [3] it was 11.2 µM; in assay [4], 1.59 µM; in [5], 17.4 µM; in assay [6], 5.82 µM. The TGI in [7] came out at 35.1 µM; in assay [8], 1.99 µM; in [9] it was 14.7 µM.
In the case of `C=C1C(=O)O[C@H]2[C@H]1CC/C(CNC(=O)Cc1c[nH]c3ccccc13)=C\CC[C@@]1(C)O[C@@H]21`, the GI50 in assay [1] is 0.404 µM; in assay [2] it was 7.32 µM; in assay [3], 0.641 µM; in assay [4], 12 µM; in assay [6], 0.314 µM; in [7] it was 19 µM. In addition, the GI50 in assay [8] is 0.486 µM. The TGI in assay [1] turned out to be 3.3 µM; in assay [2], 20.3 µM; in [3] it was 9.8 µM; in [4], 29.5 µM; in assay [6], 2.84 µM; in [7], 65.6 µM. Besides, the TGI in [8] stood at 3.96 µM.
As to `O=[N+]([O-])c1ccc(S(=O)(=O)Cc2ccccc2)c([N+](=O)[O-])c1`, the TGI in [1] stood at 3.65 µM; in assay [2], 4.9 µM; in assay [3] it was 3.37 µM; in assay [4], 9.43 µM; in [5], 8.24 µM; in [6], 6.03 µM. For the same compound, the TGI in [7] is > 51.8 µM; in [8], 5.78 µM; in [9], 3.05 µM.
Consider `OC(c1cccc(-n2ccc(C(F)(F)F)n2)c1)c1cnccc1NC1CCCCCC1` (centres undefined), for which the GI50 in assay [1] was 1.53 µM; in [2] it was 1.73 µM; in [3] it was 1.78 µM; in assay [4], 1.84 µM; in assay [5] it was 1.77 µM; in assay [6], 1.79 µM. In addition, the GI50 in assay [7] is 1.81 µM; in assay [8], 1.57 µM; in assay [9], 1.86 µM. Moreover, the TGI came out at 3.11 µM in assay [1]; 3.18 µM in assay [2]; 3.29 µM in [3]; 3.42 µM in assay [4]; 3.2 µM in assay [5]; 6.49 µM in assay [6]. Also, the TGI came to 3.35 µM in [7], 4.51 µM in [8] and 3.76 µM in [9].
As to `O=C(O)CCNc1ccccc1C(=O)O`, the TGI in assay [1], in assay [2], in [3], in assay [4], in assay [5] and in assay [6] was > 100 µM throughout. For the same compound, the TGI in assay [7], in [8] and in assay [9] was > 100 µM each time.
For the compound `COc1ccccc1NC(=O)c1sc2nc3c(cc2c1N)C(=O)CCC3`, the GI50 in assay [1] is 4.8 µM; in assay [2], 1.62 µM; in assay [3], 2.86 µM; in assay [4] it was 3.06 µM; in assay [5] it was 3.46 µM; in [6], > 100 µM. Moreover, the values for the GI50 in assay [7] and in [8] were 7.14 µM and > 100 µM, respectively. Moreover, the TGI in [1], in [2], in assay [3], in [4], in assay [5] and in assay [6] was > 100 µM each time. Besides, the TGI in assay [7] and in assay [8] was > 100 µM throughout.
With `O=C(O)C/C(=C\c1ccco1)C(=O)O`, the TGI in assay [1], in [2], in [3], in assay [5], in [6] and in [7] was > 100 µM each time. For the same compound, the TGI in [8] and in assay [9] was > 100 µM in each case.
For `COc1cccc2c1C(=O)C=CC2=O`, the TGI in [1] worked out at 4.82 µM; in assay [2] it was 30.3 µM; in assay [3], 20.7 µM; in [4] it was 32.6 µM; in assay [5] it was 33.6 µM; in assay [6] it was 1.02 µM. Besides, the TGI stood at 7.23 µM in assay [8] and 29 µM in assay [9].
Turning to `CCN(CC)CCOCC[C@H]1CC[C@H]2[C@@H]3[C@H](C)Cc4cc(OS(N)(=O)=O)ccc4[C@H]3CC[C@]12C`, the GI50 was 0.219 µM in [1]; 1.04 µM in [2]; 1.26 µM in [3]; 1.23 µM in assay [4]; 1.27 µM in assay [5]; 0.329 µM in [6]. The results for the GI50 in assay [7], in [8] and in assay [9] were 1.57 µM, 0.704 µM and 1.74 µM, respectively. The TGI in assay [1] came out at 2.28 µM; in [2] it was 2.23 µM; in assay [3], 2.59 µM; in assay [4], 2.56 µM; in [5], 2.53 µM; in assay [6] it was 1.42 µM. Further, the results for the TGI in assay [7], in [8] and in [9] were 3.87 µM, 2.67 µM and 3.34 µM, respectively.
